Data: patent US6642256B2, “Piperidine derivatives as subtype selective N-Methyl-D-Aspartate antagonists” (Warner-Lambert Company LLC, priority 2000, dated 2003)

Tests used:
[1] = system: Male Wistar albino rats; test: Formalin footpad test (FT); format: in vivo, rat; conditions: Table 1; PO; statistically significant decrease in late-phase pain behaviour versus vehicle
Description: a. The Formalin Footpad Test (FT):
The FT model was used to test invention compounds for pain alleviating properties. The model produces a biphasic response in a test animal that results from a change in pain intensity over time. The FT model utilizes an injection of dilute formalin into the hindpaw of a rodent, which produces high intensity acute pain behaviors which are measured for the first 10 minutes post formalin injection (early phase responding). High intensity acute pain behaviors include rapid licking or biting of the injected hindpaw. The second phase is a prolonged period of lower intensity pain behaviors (late phase responding) which are measured from 11 to 45 minutes post-formalin injection.
Male Wistar albino rats (Harlan Sprague-Dawley Labs), weighing approximately 100 g at the time of testing, were used. Animals were group-housed and acclimated to the housing facility for 1 week prior to testing. Animals were maintained on a 12-hour/12-hour light/dark cycle and fed block rodent chow. From 4 to 8 animals were randomly assigned to either a vehicle-only dose group or a vehicle-plus invention compound treatment group on the day of testing.
The testing apparatus was a 16″×8″ box divided into two 8″×8″ testing chambers. Each testing chamber comprised a floor and 3 walls made of clear plastic mirrors, and a fourth wall which was clear plastic that allowed observation of animal behavior. The top of each chamber was covered with a metal screen during testing to prevent animals from climbing out of the chamber. Two animals were tested simultaneously in the adjoining boxes, but animals were unable to observe one another.
Animals were weighed and placed into holding cages (2 animals per cage) in the testing room prior to dosing. Following approximately 30 minutes of acclimation to the testing room, each pair of animals was administered orally (PO) by gavage a mixture of invention compound plus vehicle or vehicle alone. The treated animals were then placed in individual test chambers and allowed to acclimate to the chambers for at least 20 minutes. Then 50 μL of a 2.5% solution of formalin in vehicle was injected subcutaneously (SC) in the plantar surface of the left hindpaw from 30 to 120 minutes after administration of the invention compound. A session timer was started following the formalin injection, and the amount of time the animal spent licking or biting the injected paw was clocked with a hand-held stopwatch. The cumulative time spent engaging in a pain response was manually recorded at 5-minute intervals for 45 minutes post formalin injection. Early phase responding included Minutes 0 to 10, and late phase responding included Minutes 11 to 45. At the end of the testing period, animals were sacrificed using carbon dioxide. […]

[2] = target: T1, NR1A/NR2B NMDA receptor subtype (Rattus norvegicus, UniProt P35439+Q00960); test: [3H]Ifenprodil binding assay (IFPNR), rat forebrain membranes; conditions: Table 1, 4 nM [3H]-ifenprodil, read-out: IFPNR (IC50 μM)
T1 construct: buffy coat membrane fraction was prepared from frozen adult rat forebrains; tissue Zivic-Miller Laboratories, Inc; host or cells: adult rat forebrain membranes
Description: b. [^3H]Ifenprodil Binding Assay (IFPNR) Protocol:
Ifenprodil, [phenyl-^3H]-(specific activity, 66.2 Ci/mmol) was purchased from Dupont NEN Research Products (Boston, Mass.). Ifenprodil tartrate was purchased from Research Biochemicals International (Natick, Mass.). HEPES, glutamate and glycine were purchased from Sigma Chemical Co. (St. Louis, Mo.).
All buffers and reagents used in assay incubations or to dissolve drugs were prepared using water purified through a Milli-Q reverse osmosis system (Millipore Corp., Bedford, Mass.) and treated with UV emissions. Prior to use in the assays buffers were further filtered through a sterile Coming filtration unit (Coming Glass Works, Coming, N.Y.) containing a 0.2 micron filter. Buffer used to rinse the membranes on the assay filters was prepared with purified water, but was not refiltered and was stored no longer than 5 days. Stock solutions of the drugs (usually 10 mM) were dissolved in 20 mM HEPES-KOH buffer pH 7.4 (assay buffer) with the addition of 1 to 5 μL of glacial AcOH, if needed to keep them in solution. Eliprodil was used as the reference NMDA antagonist. A stock solution of eliprodil was prepared, and was buffered with the addition of 10% DMSO. All subsequent dilutions from the stock solution were made in buffer.
An extensively washed buffy coat membrane fraction was prepared from frozen adult rat forebrains (Zivic-Miller Laboratories, Inc., Zelienople, Pa.) as described by Coughenour L. L.; Cordon, J. J., J. Pharmacol. Exp. Ther., 1997;280:584-592, and stored at −80° C. On the day of the assay, pellets of the frozen membrane fractions were resuspended in 35 mL of assay buffer at pH 7.4 using a POLYTRON (Kinematica A. G. Company, Littau, Switzerland) mixer at setting 6. After incubation at 37° C. for 30 minutes in a shaking water bath, the homogenate was centrifuged 40,000×g for 10 minutes at 4° C. The pellets were resuspended in fresh buffer and centrifuged 3 more times before final suspension for use in the assay.
(iii) [^3H]Ifenprodil Binding protocol:
Triplicate incubations were carried out in a volume of 0.5 mL in 1.3 mL polypropylene tubes (Marsh Biomedical Products Inc, Rochester, N.Y.) for 2 hours at room temperature. Incubations contained invention compounds, membranes (100-200 μg protein) and 4 nM [^3H]-ifenprodil in 20 mM HEPES-KOH buffer, pH 7.4 (assay buffer). Assays were started by addition of the membranes. Bound radioligand was separated by filtration under reduced pressure using a TOMTEC Mach II, 96-well cell harvester (Tomtec Inc, Orange, Conn.). Filtration was through Whatman GF/B glass fiber filters (Whatman Ltd., Maidstone, England), which had been soaked for at least 15 minutes in 0.3% polyethylenimine and allowed to air dry. The filters were rinsed with 3 mL of ice cold assay buffer within 6 seconds. Air was allowed to pass through the filters for an additional 10 seconds to remove residual moisture. The filter mat was supported on a cold (−20° C.) TEFLON (E. I. Du Pont de Nemours and Company, Wilmington, Del.) coated support, and filters from individual wells were separated and placed in Mini Poly-Q vials (Becklman Instruments Inc, Fullerton, Calif.) and filled with 4 mL of scintillation cocktail (Beckman Ready Protein^+). Radioactivity retained on the filter was determined by liquid scintillation spectrophotometry. Nonspecific binding was defined as the binding in the presence of […] ifenprodil. Ninety percent of the total binding of ifenprodil was specific binding at the NR1A/NR2B NMDA receptor subtype active site (as opposed to binding at a remote site).
Binding curves were statistically analyzed for a best 1- or 2-site competition fit using GRAPHPAD PRISM software (GraphPad Software Inc, San Diego, Calif.), a computer program used to analyze and graph scientific data. The normalized data was fitted by nonweighted nonlinear regression to either [formula]
Control data was entered as 100%, and no parameters were constrained. […]

T1 sequence (Q00960 27-1482, other chains not shown): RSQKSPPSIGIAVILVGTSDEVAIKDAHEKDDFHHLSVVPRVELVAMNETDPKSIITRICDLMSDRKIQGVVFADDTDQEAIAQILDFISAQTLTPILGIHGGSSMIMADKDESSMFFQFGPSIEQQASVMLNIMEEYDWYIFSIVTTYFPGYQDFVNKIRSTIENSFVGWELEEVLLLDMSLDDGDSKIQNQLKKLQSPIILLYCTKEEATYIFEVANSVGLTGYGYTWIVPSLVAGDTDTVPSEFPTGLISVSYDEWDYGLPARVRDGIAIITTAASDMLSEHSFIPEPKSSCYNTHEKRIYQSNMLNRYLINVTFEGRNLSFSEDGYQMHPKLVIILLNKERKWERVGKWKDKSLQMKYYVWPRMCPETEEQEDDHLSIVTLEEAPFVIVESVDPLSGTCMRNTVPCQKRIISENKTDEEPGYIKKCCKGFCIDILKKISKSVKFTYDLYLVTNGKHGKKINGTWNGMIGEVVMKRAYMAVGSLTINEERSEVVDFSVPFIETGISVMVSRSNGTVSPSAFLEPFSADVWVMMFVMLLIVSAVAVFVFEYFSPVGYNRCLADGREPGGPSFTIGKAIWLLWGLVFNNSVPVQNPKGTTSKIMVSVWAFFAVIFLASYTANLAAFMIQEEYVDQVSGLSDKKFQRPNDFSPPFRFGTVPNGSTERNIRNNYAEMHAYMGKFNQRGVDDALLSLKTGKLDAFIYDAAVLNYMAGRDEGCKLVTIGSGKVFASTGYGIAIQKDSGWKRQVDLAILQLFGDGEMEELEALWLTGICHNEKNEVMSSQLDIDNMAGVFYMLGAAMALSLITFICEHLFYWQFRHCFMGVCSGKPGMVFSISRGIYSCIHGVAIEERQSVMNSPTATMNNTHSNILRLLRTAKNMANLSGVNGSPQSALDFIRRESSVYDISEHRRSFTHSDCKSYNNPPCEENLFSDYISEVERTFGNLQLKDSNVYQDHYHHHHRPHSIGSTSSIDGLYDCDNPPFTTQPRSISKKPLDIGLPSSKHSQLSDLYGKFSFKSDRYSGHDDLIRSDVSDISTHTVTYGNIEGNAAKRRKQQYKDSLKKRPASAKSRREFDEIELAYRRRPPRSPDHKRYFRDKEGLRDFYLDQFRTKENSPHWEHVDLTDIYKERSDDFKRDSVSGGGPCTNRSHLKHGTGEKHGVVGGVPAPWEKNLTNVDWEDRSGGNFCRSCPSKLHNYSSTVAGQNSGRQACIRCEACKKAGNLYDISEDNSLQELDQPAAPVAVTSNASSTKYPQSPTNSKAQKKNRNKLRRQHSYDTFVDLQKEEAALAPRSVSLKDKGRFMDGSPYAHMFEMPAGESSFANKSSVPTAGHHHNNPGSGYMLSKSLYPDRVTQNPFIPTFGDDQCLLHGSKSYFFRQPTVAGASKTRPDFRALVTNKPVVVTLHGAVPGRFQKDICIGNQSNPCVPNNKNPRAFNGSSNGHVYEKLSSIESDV

SMILES | FT (mg/kg), active dose [1] | IC50 [2]
O=c1[nH]c2ccc(C3=NOC(CN4CCC(Cc5ccccc5)CC4)C3)cc2o1 (racemic) [Example 1, 6-[5-(4-Benzylpiperidin-1-ylmethyl)-4,5-dihydroisoxazol-3-yl]-3H-benzoxazol-2-one] | >10 mg/kg | 0.033 µM
O=c1[nH]c2ccc(C3=NOC(CN4CCC(Cc5ccc(F)cc5)CC4)C3)cc2o1 (single isomer, unassigned; (-)) [Example 4b, (−)-6-{5-[4-(4-Fluorobenzyl)piperidin-1-ylmethyl]4,5-dihydroisoxazol-3-yl}-3H-benzoxazol-2-one] | >30 mg/kg | 0.28 µM
